From ChEMBL document CHEMBL1129644, “Nucleosides with a twist. Can fixed forms of sugar ring pucker influence biological activity in nucleosides and oligonucleotides?” (J Med Chem, 1996) come the findings set out here.

A short description of data set [1]: (§1) Compound was tested for cytotoxicity against HSV-2 (herpes simplex type-2) of HFF (human foreskin fibroblasts) cells. Particulars: human alphaherpesvirus 2, HFF (human foreskin fibroblast) cells.
Data set [2] is described as follows: (§2) Compound was tested for cytotoxicity against HSV-2 (herpes simplex type-2) of HFF (human foreskin fibroblasts) cells in different experiment. The following applies: human alphaherpesvirus 2, HFF (human foreskin fibroblast) cells.
Data set [3] is described as follows: Compound was tested for cytotoxicity against HSV-1 (herpes simplex type-1) of HFF (human foreskin fibroblasts) cells. It is filed as cell-based. Particulars: HFF (human foreskin fibroblast) cells.
Data set [4] in a line: Compound was tested for cytotoxicity against HSV-1 (herpes simplex type-1) of HFF (human foreskin fibroblasts) cells in different experiment. It is filed as cell-based. The following applies: HFF (human foreskin fibroblast) cells.
A short description of data set [5]: as §2. It is filed as cell-based. The following applies: HFF (human foreskin fibroblast) cells.
Data set [6] in a line: Compound was tested for cytotoxicity against HSV-2 (herpes simplex type 2) of HFF (human foreskin fibroblasts) cells by cytopathogenic effect (CPE) inhibition assay. It is filed as cell-based. The following applies: HFF (human foreskin fibroblast) cells.
Data set [7] in a line: Compound was tested for cytotoxicity against HSV-1 (herpes simplex type-1) of HFF (human foreskin fibroblasts) cells by cytopathogenic effect (CPE) inhibition assay. It is filed as cell-based. The following applies: HFF (human foreskin fibroblast) cells.
Data set [8] is described as follows: Compound was tested for cytotoxicity against HCMV (human cytomegalovirus) of HFF(human foreskin fibroblasts) cells by cytopathogenic effect (CPE) inhibition assay. It is filed as cell-based. The following applies: HFF (human foreskin fibroblast) cells.
The nature of data set [9]: as §1. It is filed as cell-based. The following applies: HFF (human foreskin fibroblast) cells.

Values after ≈ are worked out from the molar mass of the structure shown.

With `Cc1cn([C@@]23CC2[C@H](O)[C@@H](O)C3)c(=O)[nH]c1=O` (stereo not given in full), the CC50 in [1] was above 50 µg/mL; in data set [2], above 20 µg/mL; in data set [3], above 50 µg/mL; in [4] it was above 20 µg/mL.

Regarding `Cc1cn(C2C[C@H](O)[C@@H](O)C2)c(=O)[nH]c1=O`, the CC50 in data set [5] and in [3] was above 10 µg/mL throughout.

For the molecule `Nc1nc(O)c2ncn([C@H]3C[C@H](O)[C@@]4(O)CC34)c2n1` (stereo not given in full), the CC50 in data set [6] is above 100 µg/mL; in data set [7], above 100 µg/mL; in [8] it was 64.3 µg/mL (≈ 244 µM).

Turning to `O=c1ccn([C@H]2C[C@H](O)[C@@]3(O)CC23)c(=O)[nH]1` (stereo not given in full), the 50% cytotoxic concentration (CC50) in [6], in data set [7] and in [8] was above 100 µg/mL in each case.

As for `Cc1cn([C@H]2C[C@H](O)[C@@]3(O)CC23)c(=O)[nH]c1=O` (stereo not given in full), the CC50 in data set [6] is above 100 µg/mL; in data set [9] it was above 20 µg/mL; in [5], above 20 µg/mL; in [3], above 20 µg/mL; in [7], above 100 µg/mL; in [4], above 20 µg/mL. In addition, the CC50 in [8] was found to be 63.7 µg/mL (≈ 267 µM).

Regarding `Nc1ccn([C@H]2C[C@H](O)[C@@]3(O)CC23)c(=O)n1` (stereo not given in full), the CC50 in data set [6] came out at 96 µg/mL (≈ 430 µM); in data set [7], 68 µg/mL (≈ 305 µM); in data set [8], 8.8 µg/mL (≈ 39.4 µM).

Take `Nc1ncnc2c1ncn2[C@H]1C[C@H](O)[C@@]2(O)CC12` (stereo not given in full): the CC50 in [6], in data set [7] and in [8] was above 100 µg/mL throughout.
